Ten molecules from US20050049242A1 (priority 2000, published 2005) can be followed below.

Like-named read-outs stand apart in the source and are kept apart here.

For one data set, the system named is MT-2 cells. The conditions noted are these: 48 hours. The source says: The chemical structures of the compounds are illustrated in FIGS. 1-4. In FIG. 1a, the D- and meso-isomers of L-chicoric acid are identical in this illustrative format. […] The first compound in Table 1, L-chicoric acid, a previously described DCTA, is included for reference. LD5, the 5% lethal dose, is a measure of the toxicity of compound to living, cultured cells. It is the concentration at which cell growth is inhibited by 5%. […] Most simply understood, disintegration is a term used to refer to the reverse of integration.
Cell toxicity and anti-HIV assays were performed as reported above. […] Cells were incubated with drug for 48 hours at 37° C., then harvested for cell viability in a neutral red dye assay as described.

Another data set deals with HIVLAI. As to the kind of experiment: Anti-HIV assay, protection from HIV-induced cell death. Type of data set: cell-based. The conditions noted are these: Human immunodeficiency virus 1, MT2, 72 h, read-out: ED50 (concentration that inhibits HIV-induced cell death by 50%). Here is the method:
Anti-HIV assays were performed as described above. […] The compounds were then two-fold serially diluted in triplicate. To each 50 μl of diluted compound, 50 μl of HIVLAI was added and the virus-drug mixture was incubated for 1 hr at 37° C. […] Final multiplicity of infection (MOI) was 1-5. Cells were harvested to quantitate cytopathic effect using a neutral red dye assay as described.

For another data set, the target named is HIV-1 IN (Human immunodeficiency virus type 1 group M subtype B, UniProt P12497). As to the kind of experiment: biochemical.
The test system of a further data set is HIVNL4-3 clone 7-1. Type of data set: cell-based, HIV-1. The note with it: for concentration of the drug in the combination with L-CCA giving Fa: NL4-3clone7-1, combined with L-CCA.
The test system of a further data set is HIVNL4-3 M184V. Type of data set: cell-based, HIV-1. The conditions noted are these: for concentration of the drug in the combination with L-CCA giving Fa: NL4-3cloneM184V, combined with L-CCA; for susceptibility of the clone to the drug alone: clone with methionine to valine mutation in RT. The protocol:
(§1) For each of these HIV clones, the ED50 was determined for the anti-HIV compounds ZDV, DDC, DDI, the protease inhibitor (PI) Nelfinavir (provided by Agouron Pharmaceuticals, San Diego), and L-CCA.
(§2) Molecular clones of HIV included wild-type HIVNL4-3, HIVNL4-3 M184V, and HIVNL4-3 JF26/A7, All three clones were a generous gift from P. Krogstad (UCLA, Los Angeles, Calif.). Viruses were initially, transfected in adherent HeLa cells using Lipofectin®. After 48 hours, H9 cells were added. Following 24 hours of co-culture, non-adherent cells were removed and cultured. Cells were monitored by indirect immunofluorescence and RT release as described below until the culture was 100% infected by HIV-1. Supernatant fluids were collected and clarified of cells by low-speed centrifugation followed by filtration through 0.45 μm filters.
(§3) Anti-HIV activity of compounds was determined both alone and in combination using a cytopathicity based assay as described above. […] The fifty-percent effective dose (ED50) was calculated for triplicate infections. Mean ED50 (shown in FIG. 5) were calculated for each drug against each HIV variant from a minimum of three experiments performed in triplicate.
(§4) Experiments were designed at a fixed ratio of drugs; the ratio for each drug combination was determined based on the ED50 of each drug alone against each HIV variant. Combination indices were calculated on representative experiments performed in triplicate according to the following formula of Chou and Talalay: fa/fu=(D/Dm)^m
(§5) Where fa is the fraction affected by the dose, fu is the unaffected fraction, D is the dose of the drug, Dm is the median-effect dose determined to be the x-intercept of the median-effect plot, and m is the sigmoidicity of the dose-effect curve, determined by the slope of the median-effect plot. The median effect plot is based on the following equation: log(fa/fu)=^m log (D)−m log (Dm)

Another data set concerns HIVNL4-3 JF26/A7. The conditions noted are these: for concentration of the drug in the combination with L-CCA giving Fa: NL4-3cloneJF26/A7, combined with L-CCA. The protocol:
as §1, §2, §3, §4, §5

The test system of another data set is HIV-1NL4-3clone1-D4. In kind it is cell-based. The conditions noted are these: clones 7-1, 7-3 and 1-D4, FIG. 16a. The protocol: Cloning and sequencing of virus from the HIVNL4-3 passaged in the presence of 8 μM L-chicoric acid was undertaken to determine the molecular basis for resistance to L-chicoric acid and to isolate a resistant HIV clone.
This cloning was accomplished through site-directed mutagenesis introducing several silent mutations immediately upstream and downstream of the integrase gene. These mutations generated two unique restriction sites: an upstream SacII and a downstream XbaI (FIG. 15). Introduction of these mutations allowed the entire integrase gene with only minimal upstream and downstream nucleotides to be digested and “swapped” between drug-resistant and drug-sensitive clones.

Consider `O=C(/C=C/c1ccc(O)c(O)c1)OC[C@H](OC(=O)/C=C/c1ccc(O)c(O)c1)C(=O)O` [Compound 19, Dicaffeoyl-L-glyceric acid], for which the “LD5 (5% lethal dose, concentration at which cell growth is inhibited by 5%)” value in the data set with MT-2 cells came to 145 µM. Besides, in the data set on HIVLAI, the EC50 was found to be 2300 nM. Besides, at HIV-1 IN, the IC50 – broadly, the concentration that inhibits the measured activity by half – worked out at 520 nM.
On the same counts, the results for `O=C(C=Cc1ccc(O)c(O)c1)NCC(NC(=O)C=Cc1ccc(O)c(O)c1)C(=O)O` (centres unmarked) [Compound 35, 2-3-dicaffeoyldiamidopropionic acid] are 50 µM, 70000 nM and 570 nM.
In the case of `O=C(C=Cc1ccc(O)c(O)c1)Nc1ccc(C(=O)O)cc1NC(=O)C=Cc1ccc(O)c(O)c1` [Compound 36, Bis-3,4-dicaffeoyldiamidobenzoic acid], in the data set on MT-2 cells, the “LD5 (5% lethal dose, concentration at which cell growth is inhibited by 5%)” value was found to be 47 µM. In the data set on HIVLAI, the EC50 stood at 4600 nM. On HIV-1 IN, this molecule had an IC50 of 734 nM.
For `O=C(O)C(=Cc1ccc(O)c(O)c1)C(=Cc1ccc(O)c(O)c1)C(=O)O` [Compound 37, Di-3,4-dihydroxybenzylidene succinic acid], in that order: 35 µM, 8700 nM and 2190 nM.
As for `O=C(C=Cc1ccc(O)c(O)c1)NCC(OC(=O)C=Cc1ccc(O)c(O)c1)C(=O)O` [Compound 40, Bis-dicaffeoyl-L-isoserine], the “LD5 (5% lethal dose, concentration at which cell growth is inhibited by 5%)” value with MT-2 cells came out at 175 µM. In addition, the EC50 in the data set on HIVLAI was found to be 3000 nM. The molecule further registered an IC50 at HIV-1 IN of 195 nM.
Take `O=C(C=Cc1ccc(O)c(O)c1)NCCCCC(NC(=O)C=Cc1ccc(O)c(O)c1)C(=O)O` [Compound 41, 1,4-dicaffeoyl-L-lysine]: in the data set with MT-2 cells, the “LD5 (5% lethal dose, concentration at which cell growth is inhibited by 5%)” value is 29.2 µM. Besides, the EC50 in the data set with HIVLAI was 3700 nM. The molecule also showed an IC50 against HIV-1 IN of 2230 nM.
`Nc1ccn([C@H]2CC[C@@H](CO)O2)c(=O)n1` [DDC, 2′,3′-dideoxycytidine]: the “concentration of the drug in the combination with L-CCA giving Fa” value (from here on “concentration of the drug”) with HIVNL4-3 clone 7-1 (Fa 0.2) is on record as 12.4 nM; in the data set with HIVNL4-3 clone 7-1 (Fa 0.4) it was 21.1 nM; with HIVNL4-3 clone 7-1 (Fa 0.6), 32.8 nM; in the data set with HIVNL4-3 clone 7-1 (Fa 0.8), 56.0 nM; in the data set with HIVNL4-3 clone 7-1 (Fa 0.9), 87.1 nM; in the data set with HIVNL4-3 M184V (Fa 0.2), 21.6 nM. Besides, the “concentration of the drug” value was 43.2 nM in the data set with HIVNL4-3 M184V (Fa 0.4); 76.8 nM in the data set with HIVNL4-3 M184V (Fa 0.6); 153.7 nM in the data set on HIVNL4-3 M184V (Fa 0.8); 273 nM with HIVNL4-3 M184V (Fa 0.9); 13.0 nM in the data set with HIVNL4-3 JF26/A7 (Fa 0.2); 23.8 nM with HIVNL4-3 JF26/A7 (Fa 0.4). Also, the “concentration of the drug” value in the data set on HIVNL4-3 JF26/A7 (Fa 0.6) worked out at 39.2 nM; in the data set with HIVNL4-3 JF26/A7 (Fa 0.8), 71.8 nM; in the data set on HIVNL4-3 JF26/A7 (Fa 0.9), 118 nM. The “susceptibility of the clone to the drug alone” value (“susceptibility of the clone” below) was “increased susceptibility” in the data set with HIVNL4-3 clone 7-1 (HIVNL4-3 clone 7-1) and “partial resistance” in the data set on HIVNL4-3 M184V.
Consider `OC[C@@H]1CC[C@H](n2cnc3c(O)ncnc32)O1` [DDI, 2′,3′-dideoxyinosine], for which, in the data set with HIVNL4-3 M184V, the “susceptibility of the clone” value is reported as “partial resistance”.
With `Cc1c(O)cccc1C(=O)N[C@@H](CSc1ccccc1)[C@H](O)CN1C[C@H]2CCCC[C@H]2C[C@H]1C(=O)NC(C)(C)C` [Nelfinavir], the “concentration of the drug” value with HIVNL4-3 clone 7-1 (Fa 0.2) came to 2.9 nM; in the data set with HIVNL4-3 clone 7-1 (Fa 0.4) it was 4.9 nM; in the data set with HIVNL4-3 clone 7-1 (Fa 0.6), 7.6 nM; in the data set with HIVNL4-3 clone 7-1 (Fa 0.8), 13.1 nM; in the data set on HIVNL4-3 clone 7-1 (Fa 0.9), 20.3 nM; in the data set on HIVNL4-3 M184V (Fa 0.2), 2.5 nM. The “concentration of the drug” value with HIVNL4-3 M184V (Fa 0.4) came to 4.7 nM; in the data set on HIVNL4-3 M184V (Fa 0.6) it was 7.9 nM; in the data set with HIVNL4-3 M184V (Fa 0.8), 14.8 nM; with HIVNL4-3 M184V (Fa 0.9) it was 24.8 nM; with HIVNL4-3 JF26/A7 (Fa 0.2) it was 4.6 nM; in the data set on HIVNL4-3 JF26/A7 (Fa 0.4), 7.0 nM. The entries for the “concentration of the drug” value with HIVNL4-3 JF26/A7 (Fa 0.6), in the data set with HIVNL4-3 JF26/A7 (Fa 0.8) and in the data set on HIVNL4-3 JF26/A7 (Fa 0.9) were 10.0 nM, 15.1 nM and 21.3 nM, respectively.
On to `Cc1cn([C@H]2C[C@H](N=[N+]=[N-])[C@@H](CO)O2)c(=O)[nH]c1=O` [Zidovudine, zidovudine], for which, in the data set with HIV-1NL4-3clone1-D4, the “sensitivity of the clones to the drug compared with parental HIVNL4-3” value was “same sensitivity”. Further, the “concentration of the drug” value in the data set with HIVNL4-3 clone 7-1 (Fa 0.2) worked out at 2.7 nM; in the data set on HIVNL4-3 clone 7-1 (Fa 0.4), 8.7 nM; in the data set with HIVNL4-3 clone 7-1 (Fa 0.6) it was 22.9 nM; with HIVNL4-3 clone 7-1 (Fa 0.8), 73.8 nM; in the data set with HIVNL4-3 clone 7-1 (Fa 0.9) it was 194 nM; with HIVNL4-3 M184V (Fa 0.2), 4.9 nM. The “concentration of the drug” value with HIVNL4-3 M184V (Fa 0.4) stood at 10.2 nM; in the data set on HIVNL4-3 M184V (Fa 0.6) it was 18.9 nM; in the data set with HIVNL4-3 M184V (Fa 0.8), 39.6 nM; in the data set with HIVNL4-3 M184V (Fa 0.9), 73 nM; in the data set with HIVNL4-3 JF26/A7 (Fa 0.2), 150.2 nM; in the data set on HIVNL4-3 JF26/A7 (Fa 0.4), 259.8 nM. In addition, the “concentration of the drug” value is recorded as 409 nM in the data set with HIVNL4-3 JF26/A7 (Fa 0.6), 707 nM with HIVNL4-3 JF26/A7 (Fa 0.8) and 1112 nM in the data set with HIVNL4-3 JF26/A7 (Fa 0.9). Also, the “susceptibility of the clone” value with HIVNL4-3 JF26/A7 (HIVNL4-3 JF26/A7) is “highly resistant”.
